Test results taken from the CheMixHub viscosity set.
Several values for one entry are separate records, joined by “and”; a condition that tells them apart may be missing. Equal entries are not always repeated.

Test: xn = mol fraction of the nth substance listed

CC(C)N + O=C1CCCCC1
298.15 K, 101 kPa
Conditions	viscosity [mPa·s]
x2 = 0.0627	0.41
x2 = 0.1309	0.604
x2 = 0.2051	0.844
x2 = 0.2865	1.135
x2 = 0.3759	1.498
x2 = 0.4746	1.904
x2 = 0.5842	2.083
x2 = 0.7067	2.162
x2 = 0.8442	2.051

C1COCCO1 + CCCCCCCC
viscosity [mPa·s], 101 kPa
Conditions	x1 = 0.1324	x1 = 0.2242	x1 = 0.3234	x1 = 0.4124	x1 = 0.5114	x1 = 0.6124	x1 = 0.7332	x1 = 0.8231	x1 = 0.9222
308.15 K	0.453	0.462	0.478	0.503	0.542	0.596	0.68	0.766	0.881
313.15 K	0.431	0.44	0.452	0.476	0.512	0.561	0.64	0.717	0.828
318.15 K	0.41	0.417	0.429	0.45	0.484	0.529	0.601	0.672	0.776

BrCCBr + Cc1ccccc1C
101.33 kPa
Conditions	viscosity [mPa·s]
298.15 K, x1 = 0.1292	0.7932
298.15 K, x1 = 0.261	0.8771
298.15 K, x1 = 0.3856	0.9602
298.15 K, x1 = 0.4919	1.032
298.15 K, x1 = 0.585	1.098
298.15 K, x1 = 0.6529	1.182
298.15 K, x1 = 0.7597	1.263
298.15 K, x1 = 0.8472	1.374
298.15 K, x1 = 0.9267	1.487
308.15 K, x1 = 0.1371	0.5822
308.15 K, x1 = 0.2566	0.6257
308.15 K, x1 = 0.3821	0.6992
308.15 K, x1 = 0.4845	0.7526
308.15 K, x1 = 0.5874	0.8292
308.15 K, x1 = 0.6798	0.9216
308.15 K, x1 = 0.7647	1.018
308.15 K, x1 = 0.8499	1.154
308.15 K, x1 = 0.9228	1.273

COc1ccccc1O + c1ccncc1
303.15 K, 101 kPa
Conditions	viscosity [mPa·s]
x2 = 0.1	5.04
x2 = 0.2	5.38
x2 = 0.25	5.4
x2 = 0.27	5.42
x2 = 0.3	5.4
x2 = 0.4	4.94
x2 = 0.5	4
x2 = 0.6	3.3
x2 = 0.7	2.07
x2 = 0.8	1.48
x2 = 0.9	1.09

O=C1CCCO1 + O
viscosity [mPa·s]
Conditions	298.15 K	303.15 K	308.15 K	313.15 K	318.15 K	323.15 K
101 kPa, x1 = 0.0503	1.233	1.096	0.9821	0.8569	0.8041	–
101 kPa, x1 = 0.0995	1.481	1.312	1.171	1.031	0.9551	–
101 kPa, x1 = 0.1997	1.783	1.577	1.407	1.248	1.143	–
101 kPa, x1 = 0.2994	1.896	1.686	1.509	1.346	1.232	–
101 kPa, x1 = 0.3997	1.915	1.711	1.538	1.379	1.266	–
101 kPa, x1 = 0.499	1.875	1.688	1.528	1.379	1.273	–
101 kPa, x1 = 0.5994	–	1.637	1.493	1.356	1.26	–
101 kPa, x1 = 0.701	1.754	1.603	1.471	1.343	1.255	–
101 kPa, x1 = 0.7995	1.716	1.578	1.457	1.337	1.256	–
101 kPa, x1 = 0.8996	1.697	1.569	1.457	1.343	1.267	–
101 kPa, x2 = 0.3	1.645	–	–	–	–	–
101 kPa, x2 = 0.9	1.385	–	–	–	–	–
101.33 kPa, x2 = 0.0898	–	1.56	–	1.339	–	1.163
101.33 kPa, x2 = 0.2337	–	1.595	–	1.349	–	1.159
101.33 kPa, x2 = 0.6207	–	1.674	–	1.349	–	1.112
101.33 kPa, x2 = 0.9031	–	1.257	–	1.005	–	0.8246

CCCC#N + CC(C)(C)O
viscosity [mPa·s]
Conditions	298.15 K	303.15 K	308.15 K	313.15 K	318.15 K
101 kPa, x2 = 0.0941	0.5487	0.5396	0.519	–	–
101 kPa, x2 = 0.1845	0.5808	0.5686	0.5478	–	–
101 kPa, x2 = 0.2837	0.6365	0.6123	0.5852	–	–
101 kPa, x2 = 0.3758	0.7071	0.6764	0.6373	–	–
101 kPa, x2 = 0.4766	0.8042	0.7523	0.6952	–	–
101 kPa, x2 = 0.5782	0.9457	0.8545	0.7793	–	–
101 kPa, x2 = 0.6804	1.211	1.071	0.9743	–	–
101 kPa, x2 = 0.7836	1.61	1.417	1.268	–	–
101 kPa, x2 = 0.8906	2.345	2.01	1.734	–	–
101.33 kPa, x2 = 0.0953	0.575	0.54	0.51	0.481	0.456
101.33 kPa, x2 = 0.1938	0.613	0.573	0.537	0.505	0.476
101.33 kPa, x2 = 0.2941	0.669	0.622	0.579	0.54	0.506
101.33 kPa, x2 = 0.3922	0.749	0.689	0.636	0.589	0.546
101.33 kPa, x2 = 0.4949	0.867	0.788	0.719	0.66	0.607
101.33 kPa, x2 = 0.591	1.03	0.923	0.834	0.753	0.685
101.33 kPa, x2 = 0.695	1.297	1.138	1.006	0.895	0.802
101.33 kPa, x2 = 0.7957	1.727	1.476	1.272	1.107	0.974
101.33 kPa, x2 = 0.9002	2.573	2.103	1.746	1.464	1.245

N#C[S-].[NH4+] + CC(=O)[O-].CC[n+]1ccn(C)c1
viscosity [mPa·s], 101 kPa
Conditions	x1 = 0.02	x1 = 0.1002	x1 = 0.1998	x1 = 0.2514	x1 = 0.3001	x1 = 0.3199	x1 = 0.3413
298.15 K	136.6	160.2	190.7	198.6	194.6	195.4	196.4
303.15 K	100.9	117.6	139.3	144.4	141.9	142.8	143.6
308.15 K	76.44	88.53	104	107.4	105.9	106.6	107.3
313.15 K	59.28	68.07	79.27	81.46	80.5	81.14	81.73
318.15 K	46.92	53.32	61.47	62.88	62.26	62.81	63.32
323.15 K	37.79	42.45	48.4	49.28	48.89	49.35	49.79

CSCC[C@H](N)C(=O)O + O
viscosity, 101 kPa
Conditions	293.15 K	298.15 K	303.15 K	308.15 K	313.15 K	318.15 K
x1 = 0.00045	1.011 mPa·s and 1.009 mPa·s	0.8992 mPa·s and 0.8967 mPa·s	0.8057 mPa·s and 0.8039 mPa·s	0.727 mPa·s and 0.7258 mPa·s	0.6602 mPa·s and 0.6603 mPa·s	0.6044 mPa·s
x1 = 0.0009	1.019 mPa·s and 1.016 mPa·s	0.9063 mPa·s and 0.903 mPa·s	0.8126 mPa·s and 0.8103 mPa·s	0.734 mPa·s and 0.7327 mPa·s	0.6671 mPa·s and 0.6678 mPa·s	–
x1 = 0.0013	1.023 mPa·s	0.9098 mPa·s	0.8169 mPa·s	0.7392 mPa·s	0.6743 mPa·s	–
x1 = 0.00135	–	0.9131 mPa·s	0.8195 mPa·s	0.7408 mPa·s	0.6735 mPa·s	0.6178 mPa·s
x1 = 0.001798	–	–	0.8264 mPa·s	0.7475 mPa·s	–	0.6244 mPa·s
x1 = 0.0018	–	0.9165 mPa·s	0.8232 mPa·s	0.745 mPa·s	0.6815 mPa·s	–
x1 = 0.002247	1.039 mPa·s	0.9266 mPa·s	0.833 mPa·s	0.754 mPa·s	0.687 mPa·s	0.631 mPa·s
x1 = 0.00225	1.037 mPa·s	0.9232 mPa·s	0.8295 mPa·s	0.7524 mPa·s	0.688 mPa·s	–
x1 = 0.00269	1.044 mPa·s	0.9295 mPa·s	0.8368 mPa·s	0.7588 mPa·s	0.6951 mPa·s	–
x1 = 0.002693	1.046 mPa·s	0.9335 mPa·s	0.8396 mPa·s	0.7607 mPa·s	0.6936 mPa·s	0.6373 mPa·s
x1 = 0.00314	1.05 mPa·s	0.936 mPa·s	0.8435 mPa·s	0.7657 mPa·s	0.7019 mPa·s	–
x1 = 0.003143	1.053 mPa·s	0.9403 mPa·s	0.8465 mPa·s	0.7675 mPa·s	0.6999 mPa·s	0.6436 mPa·s
x1 = 0.003588	1.06 mPa·s	0.9474 mPa·s	0.8535 mPa·s	0.7743 mPa·s	0.7063 mPa·s	0.6495 mPa·s
x1 = 0.00359	1.057 mPa·s	0.9426 mPa·s	0.85 mPa·s	0.7724 mPa·s	0.7087 mPa·s	–

Brc1ccccc1 + C1CCOCC1
viscosity [mPa·s], 101 kPa
Conditions	x2 = 0.097	x2 = 0.1996	x2 = 0.3053	x2 = 0.4011	x2 = 0.5073
298.15 K	1.05	1.037	1.021	1	0.9753
313.15 K	0.8682	0.8547	0.8377	0.8212	0.7989

O=C1CCCO1 + CCOC(C)=O
298.15 K, 101.33 kPa
Conditions	viscosity [mPa·s]
x2 = 0.0501	1.575
x2 = 0.1023	1.453
x2 = 0.1528	1.345
x2 = 0.2005	1.249
x2 = 0.2542	1.152
x2 = 0.3039	1.071
x2 = 0.4046	0.926
x2 = 0.4546	0.864
x2 = 0.5006	0.81
x2 = 0.5528	0.755
x2 = 0.6019	0.707
x2 = 0.6994	0.622
x2 = 0.75	0.583
x2 = 0.7981	0.547
x2 = 0.849	0.513
x2 = 0.902	0.481
x2 = 0.9504	0.45
